The values below come from EP4678179A1, “PHARMACEUTICAL COMPOSITION CONTAINING ACTIVE SULFUR MOLECULE” (Tohoku University, priority 2023, dated 2024).

Structures are written as SMILES.

Test [1] deals with Rag2-/- host mice. Description: T cell transfer enteritis (IBD) model: naive CD4+ T cells transferred into Rag2-/- mice, GSSSG administered intraperitoneally. Type of test: in vivo. The text has this:
CD4^+ T cells were magnetically sorted from splenocytes of young mice (from 8 to 12 weeks old). Then, naive CD4^+ T cells (CD3^+ CD4^+ CD25^- CD44^lo CD62L^hi or CD3^+ CD4^+ Foxp3-RFP^- CD44^lo CD62L^hi) were sorted using FACS AriaII (BD Bioscience) based on fluorescently labeled monoclonal antibodies or reporter fluorescent proteins. In experiments to confirm homeostatic maintenance proliferation, naive CD4^+ T cells were labeled with carboxyfluorescein succinimidyl ester (CFSE) (Thermo Fisher Scientific), and were injected into the tail veins of CD45.1 host mice irradiated with a sublethal dose (5.5 Gy), at 1 × 10^6 cells per mouse 1 day before transfer. In experiments to induce enteritis, wild-type or Cars2^+/- naive CD4^+ T cells were injected into the tail veins of Rag2^-/- mice at 3 × 10^5 cells per mouse. In experiments to evaluate the function of regulatory T cells, Cars2^+/+ naive CD4^+ T cells were co-transferred with regulatory T cells derived from Cars2^+/- Foxp3-RFP reporter mice (1 × 10^5 cells/mouse). In GSSSG administration experiments, GSSSG (400 nmol/mouse) was intraperitoneally administered to the Rag2^-/- host mice every day from the same day as the day when the naive CD4^+ T cells were transferred.
At the stage where from 3 to 4 weeks had elapsed after the transfer of the naive T cells, the large intestines of the Rag2^-/- host mice were collected and fixed with 10% formalin. After the fixed samples were embedded in paraffin, 5-µm-thick sections were cut out and subjected to hematoxylin-eosin staining (H & E) and immunostaining with a CD4 monoclonal antibody (mAb) (EPR19514). The histological inflammation score was classified into three groups with reference to a previous report (Biswas et al., Nat Commun 9, 1779 (2018)).
Therefore, using the same IBD model, wild-type and Cars2+/- naive CD4+ T cells were adoptively transferred to Rag2-/- mice, and the properties of the donor cells and the IBD pathological conditions of the host mice were observed over time. […] Since there was no significant difference in proportion of dead cells between the two groups (FIGS. 4F, 5C, and 5F), the reason for the increase in number of accumulated cytokine-producing Cars2+/- T cells is considered to be enhanced homeostatic maintenance proliferation of the donor cells.
To confirm whether CARS2 suppresses the proliferation of enteritis pathogenic T cells via active sulfur, GSSSG, which is a donor of an active sulfur molecule, was administered to Rag2-/- host mice, and as a result, the body weight loss of the individuals transplanted with Cars2+/- CD4+ T cells was suppressed, and the reduction in histological enteritis images was observed (FIGS. 8A to 8C).

Test [2] relates to human CD4+ T cells. Briefly: Cell cycle analysis of human naive CD4+ T cells stimulated with CD3/CD28 in the presence or absence of GSSSG. Type of test: cell-based. The settings on record: naive CD4+ T cells from peripheral bloods of healthy individuals; CD3/CD28 stimulation; GSSSG 1 µM; 48 hours; FIG. 10E. As for the experimental part:
Peripheral mononuclear blood cells were isolated using Vacutainer (BD Bioscience), and naive CD4^+ T cells (CD3^+ CD4^+ CD25^- CD45RO^- CD45RA^+) were purified from the isolated mononuclear cells using FACS AriaII (BD Bioscience). The purified naive CD4^+ T cells were seeded in a 96-well plate at 5 × 10^4 cells per well, and stimulated with Dynabeads™ Human T-Activator CD3/CD28 (Thermo Fischer Scientific) in an RPMI medium (10% FCS) in the presence or absence of GSSSG (1 µM) for 48 hours.
Finally, the involvement of active sulfur in the regulation of the proliferation of human CD4+ T cells was examined through in vitro cell culture. Specifically, naive CD4+ T cells purified from peripheral bloods of healthy individuals were stimulated with CD3/CD28 in the presence and absence of GSSSG to induce the proliferative response, and the cell cycle was analyzed 48 hours after the stimulation. […] Thus, it was shown that CARS2-dependent active sulfur metabolism also suppresses the cell cycle entry also in human CD4+ T cells and limits the proliferation of the same cells.

For test [3], the system named is HDM-treated mice. Description: HDM-induced mouse asthma model (type 2 airway inflammation), intraperitoneal GSSSG. In kind it is in vivo. As for the experimental part: Asthma model mice were created according to a previous report (Ishii et al., Scandinavian journal of immunology. 2018; 87 (3)). Specifically, as shown in the FIG. 5A, mice were intranasally administered with HDM extract (at the indicated doses in PBS) under isoflurane anesthesia to induce asthma.
Twenty four (24) hours after the last dose of HDM, the mice were anesthetized and sacrificed by exsanguination. The alveoli were washed three times with 500 µL of 10 mM PBS, and the bronchial alveolar lavage fluid (BALF) was collected. For 5 minutes, […], then the supernatant was stored for biochemical analysis, and the cellular pellet was resuspended in 500 µL of 10 mM PBS. The total number of cells was counted using a Scepter handheld automated cell counter (Millipore), followed by cytospin specimen preparation and staining with Diff-Quick (Sysmex) or Eosinostain-Torii (Torii Pharmaceutical).
Isolation of cells from mouse lung tissue and FCM were performed according to previous reports (Gomez et al., American journal of respiratory cell and molecular biology. 2015; 52 (3): 349-64., and Yamada et al., American journal of respiratory and critical care medicine. 2011; 183 (10): 1391-401.). For histological examination of lung inflammation, lung sections were stained with hematoxylin and eosin (HE). Lung inflammation was semi-quantified and evaluated according to a previous report.
It was investigated whether intraperitoneal administration of GSSSG in vivo suppresses an HDM-induced type 2 airway inflammation. […] Thus, GSSSG has therapeutic potential in CD4 T cell-mediated type 2 inflammatory diseases, including asthma, by organizing TCR signaling.

In the case of `N[C@@H](CCC(=O)N[C@@H](CSSSC[C@H](NC(=O)CC[C@H](N)C(=O)O)C(=O)NCC(=O)O)C(=O)NCC(=O)O)C(=O)O` [GSSSG, glutathione trisulfide], in test [1] (Rag2-/- host mice transfused with wild-type CD4+ T cells, GSSSG 400 nmol/mouse intraperitoneally every day, FIGS. 9A to 9C), the therapeutic effect result is recorded as “no significant therapeutic effect”. Moreover, the body weight loss result in test [1] (Rag2-/- host mice transplanted with Cars2+/- CD4+ T cells, GSSSG 400 nmol/mouse intraperitoneally every day, FIG. 8A) is recorded as “suppressed”. For the same compound, the histological enteritis images result in test [1] (Rag2-/- host mice transplanted with Cars2+/- CD4+ T cells, GSSSG 400 nmol/mouse intraperitoneally every day, large intestine, H & E and CD4 immunostaining, FIGS. 8B, 8C) is on record as “reduction”. The “enteritis induced by Cars2+/- CD4+ T cells” value in test [1] (figure legend of FIG. 8, administration of GSSSG to host mice) is listed as “improved”. The “cell cycle entry of the naive CD4+ T cells” value in test [2] is on record as “significantly suppressed”. The “accumulation of inflammatory cells, particularly eosinophils, in the airways” value in test [3] (both Cars2+/- mice and WT mice, HDM-treated, 1 mM GSSSG intraperitoneal, BALF, FIG. 14E) is “significantly suppressed”. For the same compound, the lung inflammation result in test [3] (both HDM-treated Cars2+/- mice and HDM-treated WT mice, GSSSG treatment, HE-stained lung tissue, FIG. 14F) is on record as “significantly reduced”. In test [3] (both HDM-treated Cars2+/- mice and HDM-treated WT mice, GSSSG treatment, PAS-stained lung tissue, FIG. 14G), the goblet cell hyperplasia entry is given as “significantly reduced”.
